Where only a bound is given, the exact number is not on record here.

For one test, the system named is RBL-2H3 cells. In words: Fluorescence-based assay of store-operated calcium entry in RBL-2H3 cells. In kind it is cell-based. Conditions: Rattus norvegicus, thapsigargin, 50% inhibition of Upslope (7 seconds after calcium addition), read-out: RBL-2H3 (IC50, μmol). The procedure: B. Fluorescence-Based Assay of Store-Operated Calcium Entry in RBL-2H3 Cells.
RBL-2H3 cells are obtained from ATCC and maintained in complete medium with 10% FBS at 37° C./6% CO2.
The day prior to performing the assay, RBL-2H3 cells are plated in 50 μL of complete medium in a 384 well plate. Cells are grown at 37° C./6% CO2 overnight and grow to 50-60% confluence by the next day. On the assay day, 1.5 μM Fluo-4-AM dye (Invitrogen) in complete medium is added and incubated for 1 hour at RT. Cells are washed twice in Ca^2+-free HBSS buffer and 35 μL Ca^2+-free HBSS buffer is added to each well. 10 μL of a test compound prepared in a Ca^2+-free HBSS solution at 4.5× of the desired concentration is added to a well and incubated for 5 minutes at RT. 10 μL of thapsigargin prepared in a Ca^2+-free HBSS solution at 5.5× of the desired concentration (5.5 uM) is added to each well and incubated for an additional 25 minutes. The initial baseline fluorescence signal is measured with a FLIPR^384 (Molecular Devices) plate reader. 5 μL of 12× calcium in HBSS (12 mM) is added and changes in cellular fluorescence are measured with the FLIPR^384 plate reader. In each well, the change in the fluorescent signal as a function of time due to calcium entry into the cell is determined by calculating the difference between the fluorescent signal measured 7 seconds after calcium addition and the initial baseline fluorescence signal at time zero (t=0). This parameter is designated Upslope. The IC50 value is calculated as the concentration at which 50% of the Upslope is inhibited.

The target of the next test is T1, Orai1/STIM1 (Homo sapiens, UniProt Q96D31).
T1 construct: c-myc (C); expressed in transfected cells
T1 sequence (Q96D31 whole entry): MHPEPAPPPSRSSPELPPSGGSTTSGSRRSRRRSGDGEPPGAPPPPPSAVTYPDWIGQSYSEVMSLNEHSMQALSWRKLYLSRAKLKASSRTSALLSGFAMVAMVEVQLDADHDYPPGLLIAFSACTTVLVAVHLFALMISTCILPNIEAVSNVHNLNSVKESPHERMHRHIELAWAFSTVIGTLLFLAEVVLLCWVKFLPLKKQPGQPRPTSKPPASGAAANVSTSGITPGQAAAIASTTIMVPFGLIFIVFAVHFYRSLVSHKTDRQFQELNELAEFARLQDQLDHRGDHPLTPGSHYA
The test is described as follows: Fluorescence-based assay of store-operated calcium entry in Orai1/STIM1 stable cells. In kind it is cell-based. Also on record: key to Orai1/STIM1 (IC50, μmol): A ≦ 1.0 μmol; B > 1.0 μmol; -- = no fit. Conditions: HEK-293 cells stably expressing human STIM1 and Orai1, 50% inhibition of Peak-Basal fluo-4 signal, 30 minutes compound incubation; for IC50: read-out: Orai1/STIM1 (IC50, μmol). The procedure: A. Fluorescence-Based Assay of Store-Operated Calcium Entry in Orail/STIM1 Stable Cells.
Cells stably expressing recombinant human STIM1 and Orail are generated by transfecting a human Orail expression plasmid (pcDNA3.1-Orail-cmyc) into HEK-293 cells stably overexpressing human STIM1 (Roos et al. 2005 JCB 169(3): 435-445). Colonies of cells stably expressing both STIM1 and Orail proteins are selected and then subcloned by limiting dilution. Cells were cultured at 37° C./6% CO2 in complete medium with 10% FBS and appropriate selection markers.
The day prior to performing the assay Orail/STIM1 stable cells are plated in 50 μL of complete medium at 90-95% confluence in a 384 well plate. Cells are grown at 37° C./6% CO2 overnight. On the day of the assay, 1.5 μM fluo-4-AM (Invitrogen) in complete medium is added to the cells, which are then incubated for 1 hour at RT. Cells are washed once in Ca^2+-free HBSS (Hank's buffered saline solution) and 35 μl of Ca^2+-free HBSS is added to each well. Test compounds are added to wells in a 10 μL Ca^2+-free HBSS solution, prepared at 4.5× the desired final concentration, and incubated for 30 minutes at RT. The initial baseline fluorescence signal is then measured with a FLIPR^384 (Molecular Devices) plate reader. Calcium entry is initiated by adding 5 μl of 10×CaCl2 (10 mM) in HBSS, and changes in cellular fluorescence are measured with the FLIPR^384 plate reader. In each well, the magnitude of the fluorescence signal as a result of calcium entry into the cell is determined by calculating the difference between the peak fluorescence signal measured after calcium addition and the initial baseline fluorescence signal (designated Peak-Basal). IC50 values are typically calculated as the concentration that inhibited 50% of the Peak-Basal signal (Table A).

Another test relates to Jurkat cells. Conditions: Jurkat cells and colon cancer cells; cited from earlier work.
The target of test [1] is STIM1 and Orail in HEK293 cells (Homo sapiens, UniProt Q96D31). Particulars: HEK293 cells co-expressing STIM1 and Orai1; cited from earlier work.
STIM1 and Orail in HEK293 cells, sequence (Q96D31 whole entry): as above

For `Cn1nc(-c2ccccc2F)cc1-c1ccc(C(=O)Nc2ccccc2F)[se]1`, the IC50 in the test with RBL-2H3 cells and on Orai1/STIM1 was ≤ 1000 nM in each case.

On to `O=C(Nc1[se]cc(-c2ccc(Br)cc2)c1C(=O)O)c1nc2ccccc2s1`, for which the IC50 in the test with RBL-2H3 cells is ≤ 1000 nM; at Orai1/STIM1, > 1000 nM. Take `O=C(Nc1ncc(-c2ccccc2C(F)(F)F)[se]1)c1ccccc1F`: the IC50 in the test on RBL-2H3 cells and at Orai1/STIM1 was ≤ 1000 nM in each case. Consider `Cc1ccc(Cl)cc1-c1cnc(NC(=O)c2ccccc2F)[se]1`, for which the IC50 in the test with RBL-2H3 cells and at Orai1/STIM1 was ≤ 1000 nM each time. In the case of `Cn1nc(C(F)(F)F)cc1-c1cnc(NC(=O)c2ccccc2Cl)[se]1`, the IC50 in the test with RBL-2H3 cells and at Orai1/STIM1 was ≤ 1000 nM in each case. For the molecule `Cc1cc2scnc2cc1-c1ccc(C(=O)Nc2c(F)cccc2F)[se]1`, the IC50 in the test with RBL-2H3 cells and on Orai1/STIM1 was ≤ 1000 nM each time. Turning to `Cn1nc(-c2ccccc2F)cc1-c1ccc(C(=O)Nc2ccncc2F)[se]1`, the IC50 with RBL-2H3 cells and at Orai1/STIM1 was ≤ 1000 nM each time. As for `O=C(Nc1[se]cc(-c2ccc(Br)cc2)c1C(=O)O)c1cc2ccccc2o1`, the IC50 in the test on RBL-2H3 cells and at Orai1/STIM1 was ≤ 1000 nM in each case. In the case of `Cn1nc(-c2ccccc2F)cc1-c1cnc(NC(=O)c2ccccc2F)[se]1`, the figures for the IC50 in the test with RBL-2H3 cells and at Orai1/STIM1 were ≤ 1000 nM and > 1000 nM, respectively. In the case of `Cc1nnsc1C(=O)Nc1ccc(-n2nc(C(F)(F)F)cc2C(F)(F)F)cc1` [BTP-2], in the test with Jurkat cells, the “inhibition of SOCE” value is on record as “inhibits” and the inhibition of proliferation result is recorded as “inhibits”. As to `Cn1nc(-c2nccs2)cc1-c1ccc(C(=O)Nc2c(F)cccc2F)[se]1`, the IC50 with RBL-2H3 cells and at Orai1/STIM1 was ≤ 1000 nM each time. Consider `Cc1ccccc1-c1cnc(NC(=O)c2ccccc2F)[se]1`, for which the IC50 in the test with RBL-2H3 cells and on Orai1/STIM1 was ≤ 1000 nM each time. As to `Cc1cc(OC(F)(F)F)ccc1-c1cnc(NC(=O)c2c(F)cccc2F)[se]1`, in the test on RBL-2H3 cells, the IC50 is ≤ 1000 nM. Also, the “Orai1/STIM1 (IC50, μmol)” value on Orai1/STIM1 was “--”.

Regarding `Cn1nc(-c2nccs2)cc1-c1ccc(C(=O)Nc2ccccc2F)[se]1`, the IC50 in the test on RBL-2H3 cells and on Orai1/STIM1 was ≤ 1000 nM in each case. On to `CCn1nc(C(F)(F)F)cc1-c1cnc(NC(=O)c2ccccc2F)[se]1`, for which the IC50 in the test with RBL-2H3 cells and at Orai1/STIM1 was ≤ 1000 nM in each case. Take `Cc1ccccc1-c1cnc(NC(=O)c2c(F)cccc2F)[se]1`: the IC50 with RBL-2H3 cells and at Orai1/STIM1 was ≤ 1000 nM in each case. In the case of `Cc1nc2cc(Cl)c(-c3ccc(C(=O)Nc4ccccc4F)[se]3)cc2o1`, the IC50 in the test with RBL-2H3 cells and at Orai1/STIM1 was ≤ 1000 nM in each case.

In the case of `Cn1nc(-c2ccco2)cc1-c1ccc(C(=O)Nc2c(F)cccc2F)[se]1`, the IC50 in the test with RBL-2H3 cells is > 1000 nM. For the same molecule, the “Orai1/STIM1 (IC50, μmol)” value on Orai1/STIM1 was “--”. For the molecule `Cn1nc(-c2ccco2)cc1-c1ccc(C(=O)Nc2ccncc2F)[se]1`, the IC50 in the test on RBL-2H3 cells and at Orai1/STIM1 was ≤ 1000 nM throughout.

On to `Cc1ccccc1-c1cnc(NC(=O)c2ccccc2Cl)[se]1`, for which the IC50 with RBL-2H3 cells and on Orai1/STIM1 was ≤ 1000 nM in each case.

Take `Cn1nc(C(F)(F)F)cc1-c1ccc(C(=O)Nc2ccncc2F)[se]1`: the IC50 in the test on RBL-2H3 cells and on Orai1/STIM1 was ≤ 1000 nM throughout. Turning to `Cn1nc(C(F)(F)F)cc1-c1cnc(NC(=O)c2c(F)cccc2F)[se]1`, the IC50 with RBL-2H3 cells and at Orai1/STIM1 was ≤ 1000 nM each time.

In the case of `Cn1nc(C(F)(F)F)cc1-c1ccc(C(=O)Nc2c(F)cccc2F)[se]1`, the IC50 in the test with RBL-2H3 cells and on Orai1/STIM1 was ≤ 1000 nM throughout. As for `Cc1cscc1-c1cnc(NC(=O)c2ccccc2F)[se]1`, the IC50 was ≤ 1000 nM in the test on RBL-2H3 cells and > 1000 nM at Orai1/STIM1. `Cn1nc(-c2ccco2)cc1-c1ccc(C(=O)Nc2ccccc2F)[se]1`: the IC50 in the test with RBL-2H3 cells and on Orai1/STIM1 was ≤ 1000 nM each time. On to `Cn1nc(-c2ccccc2F)cc1-c1ccc(C(=O)Nc2c(F)cccc2F)[se]1`, for which the IC50 in the test with RBL-2H3 cells and on Orai1/STIM1 was ≤ 1000 nM throughout. On to `O=C(Nc1ccncc1F)c1ccc(-c2cc(C(F)(F)F)ccc2Cl)[se]1`, for which the IC50 with RBL-2H3 cells and at Orai1/STIM1 was > 1000 nM each time. In the case of `Cc1cc(OC(F)(F)F)ccc1-c1cnc(NC(=O)c2ccccc2F)[se]1`, the IC50 in the test on RBL-2H3 cells and on Orai1/STIM1 was ≤ 1000 nM in each case. Consider `Cn1nc(-c2nccs2)cc1-c1ccc(C(=O)Nc2ccncc2F)[se]1`, for which the IC50 in the test with RBL-2H3 cells and on Orai1/STIM1 was ≤ 1000 nM in each case. Consider `Cc1ccc(F)cc1-c1cnc(NC(=O)c2ccccc2F)[se]1`, for which the IC50 in the test with RBL-2H3 cells and on Orai1/STIM1 was ≤ 1000 nM each time.

`Cn1nc(C(F)(F)F)cc1-c1cnc(NC(=O)c2ccccc2F)[se]1`: the IC50 with RBL-2H3 cells and on Orai1/STIM1 was ≤ 1000 nM throughout. Regarding `Cc1cc2c(cc1-c1cnc(NC(=O)c3ccccc3F)[se]1)OC(F)(F)O2`, the IC50 in the test with RBL-2H3 cells and at Orai1/STIM1 was ≤ 1000 nM throughout.

In the case of `Cc1cc2c(cc1-c1cnc(NC(=O)c3c(F)cccc3F)[se]1)OC(F)(F)O2`, the IC50 in the test with RBL-2H3 cells was ≤ 1000 nM; at Orai1/STIM1, > 1000 nM. `O=C(Nc1[se]cc(-c2ccc(Cl)cc2)c1C(=O)O)c1nc2ccccc2s1`: the IC50 in the test on RBL-2H3 cells and on Orai1/STIM1 was > 1000 nM each time. In the case of `Cn1nc(C(F)(F)F)cc1-c1ccc(C(=O)Nc2ccccc2F)[se]1`, the IC50 with RBL-2H3 cells and on Orai1/STIM1 was ≤ 1000 nM throughout. As for `NCCOB(c1ccccc1)c1ccccc1` [2-aminoethoxydiphenylborate], the “block of store-operated Ca2+ entry” value in test [1] is recorded as “completely blocked”.
